The results in this text go back to ChEMBL document CHEMBL3414440, “Pure enantiomers of benzoylamino-tranylcypromine: LSD1 inhibition, gene modulation in human leukemia cells and effects on clonogenic potential of murine promyelocytic blasts” (Eur J Med Chem, 2015).

Structures are written as SMILES.

One data set in a line: cells. The note with it: Mus musculus, Leukemia cell, read-out: INH.
For data set [1], the target named is T1, MAO-B (amine oxidase [flavin-containing] B) (Homo sapiens, UniProt P27338).
T1 sequence (P27338 whole entry): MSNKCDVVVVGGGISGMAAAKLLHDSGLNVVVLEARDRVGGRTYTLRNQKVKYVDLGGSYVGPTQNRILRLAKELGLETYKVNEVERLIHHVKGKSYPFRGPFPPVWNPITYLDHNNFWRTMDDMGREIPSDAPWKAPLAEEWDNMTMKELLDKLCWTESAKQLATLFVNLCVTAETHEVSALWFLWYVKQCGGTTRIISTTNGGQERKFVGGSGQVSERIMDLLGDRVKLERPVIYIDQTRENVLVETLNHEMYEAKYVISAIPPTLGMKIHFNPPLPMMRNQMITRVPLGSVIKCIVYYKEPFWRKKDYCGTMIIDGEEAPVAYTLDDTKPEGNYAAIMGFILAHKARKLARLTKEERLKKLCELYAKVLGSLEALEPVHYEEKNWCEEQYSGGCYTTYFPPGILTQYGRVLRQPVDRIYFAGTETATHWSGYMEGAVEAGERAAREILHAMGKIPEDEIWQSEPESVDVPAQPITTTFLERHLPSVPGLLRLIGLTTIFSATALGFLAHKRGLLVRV
The experiment in a line: Inhibition of human recombinant MAOB expressed in Pichia pastoris at 100 uM incubated for 15 mins prior to substrate addition measured after 30 mins by luminescence assay.

Data set [2] concerns the target T2, Amine oxidase [flavin-containing] A (Homo sapiens, UniProt P21397).
T2 sequence (P21397 whole entry): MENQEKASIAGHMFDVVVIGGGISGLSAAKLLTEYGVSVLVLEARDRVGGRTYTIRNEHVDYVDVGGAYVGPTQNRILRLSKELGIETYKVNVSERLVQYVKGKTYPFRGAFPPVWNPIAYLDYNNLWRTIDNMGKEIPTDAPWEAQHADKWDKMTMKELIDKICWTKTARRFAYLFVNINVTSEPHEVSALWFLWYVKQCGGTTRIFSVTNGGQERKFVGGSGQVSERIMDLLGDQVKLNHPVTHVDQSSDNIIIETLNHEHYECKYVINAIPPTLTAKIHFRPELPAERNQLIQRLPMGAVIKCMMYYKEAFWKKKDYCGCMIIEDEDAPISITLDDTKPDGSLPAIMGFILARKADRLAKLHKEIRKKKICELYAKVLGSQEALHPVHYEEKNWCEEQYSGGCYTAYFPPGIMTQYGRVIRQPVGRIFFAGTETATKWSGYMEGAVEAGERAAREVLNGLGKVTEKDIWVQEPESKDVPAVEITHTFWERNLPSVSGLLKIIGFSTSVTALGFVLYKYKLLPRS
Description: Inhibition of human recombinant MAOA expressed in Pichia pastoris incubated for 15 mins prior to substrate addition measured after 30 mins by luminescence assay

The target of data set [3] is T3, Amine oxidase [flavin-containing] B (Homo sapiens, UniProt P27338).
T3 sequence (P27338 whole entry): T1 sequence (P27338 whole entry)
Description: Inhibition of human recombinant MAOB expressed in Pichia pastoris incubated for 15 mins prior to substrate addition measured after 30 mins by luminescence assay

Description for cells: Inhibition of colony formation in mouse acute myeloid Leukemia cell assessed as colony forming unit at 0.25 uM after 7 days relative to control

On to `N[C@H]1C[C@@H]1c1ccc(NC(=O)c2ccccc2)cc1`, for which the inhibition at […] in “cells” stood at 64%.

As to `N[C@@H]1C[C@H]1c1ccc(NC(=O)c2ccccc2)cc1`, the inhibition at […] in the data set “cells” came out at 83.4%.

As for `N[C@H]1C[C@@H]1c1cccc(NC(=O)c2ccccc2)c1`, in data set [1], the inhibition at 0.5 h, 100 µM was 29%. Also, 1.37 µM corresponded to half-maximal inhibition in data set [2] (IC50).

In the case of `N[C@@H]1C[C@H]1c1cccc(NC(=O)c2ccccc2)c1`, the results for the IC50 in data set [3] and in data set [2] were 84.7 µM and 1.54 µM, respectively.

For `N[C@@H]1C[C@@H]1c1ccc(NC(=O)c2ccccc2)cc1`, the inhibition at […] in “cells” amounted to 72%.

Consider `N[C@H]1C[C@H]1c1ccc(NC(=O)c2ccccc2)cc1`, for which, in “cells”, the inhibition at […] was 83.8%.

Consider `N[C@@H]1C[C@@H]1c1cccc(NC(=O)c2ccccc2)c1`, for which the inhibition at 0.5 h, 100 µM in data set [1] was 34%. Inhibition in data set [2] was half-maximal at 0.65 µM (IC50).

Regarding `N[C@H]1C[C@H]1c1cccc(NC(=O)c2ccccc2)c1`, the concentration for half-maximal inhibition (IC50) (in general, the concentration that inhibits the measured activity by half) in data set [3] came out at 80.1 µM; in data set [2] it was 0.07 µM.
